Test results: US20240398844A1, “PHENYLCOUMARINS FOR TREATING INFLAMMATION” (Ohio State Innovation Foundation, priority 2021, published 2024)
Each block holds one compound with its values, some of them ahead of it.

Key:
[1] = target: T1, PPAR-γ (Homo sapiens, UniProt P37231); experiment: PPAR-γ ELISA Assay in HeLa cells (in vitro PPAR-γ assay); format: cell-based; conditions: 50 μg/mL; for activation at 50 µg/mL: Table 2; for % Activation PPAR-γ: Table 4
T1 construct: endogenous in cells; host or cells: HeLa
T1 sequence (P37231 1-505): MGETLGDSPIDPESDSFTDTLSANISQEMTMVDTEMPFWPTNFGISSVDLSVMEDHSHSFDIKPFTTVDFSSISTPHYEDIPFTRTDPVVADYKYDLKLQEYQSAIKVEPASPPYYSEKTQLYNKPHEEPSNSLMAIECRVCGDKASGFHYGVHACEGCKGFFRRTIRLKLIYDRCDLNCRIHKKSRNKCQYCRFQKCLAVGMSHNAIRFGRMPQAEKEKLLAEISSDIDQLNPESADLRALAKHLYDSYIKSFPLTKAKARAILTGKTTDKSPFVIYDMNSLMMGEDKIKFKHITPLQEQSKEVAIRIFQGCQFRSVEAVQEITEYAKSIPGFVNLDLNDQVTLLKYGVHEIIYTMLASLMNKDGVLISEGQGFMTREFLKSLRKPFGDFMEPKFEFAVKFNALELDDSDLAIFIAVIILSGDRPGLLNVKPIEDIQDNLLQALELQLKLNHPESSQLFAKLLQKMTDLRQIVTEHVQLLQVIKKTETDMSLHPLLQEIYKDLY
Description: In addition to the Western blot, the diverse library was also screened in the in vitro PPAR-γ assay. […] The compounds were tested at 50 μg/mL according to the protocol detailed in section 3.2.3.

[2] = tested on: HbA1C; experiment: Diabetic zebrafish Western blot, HbA1C expression; format: in vivo; conditions: diabetic zebrafish, 10 μM, library screen, FIG. 2 / FIG. 11
Description: (§1) Alloxan-induced diabetic zebrafish were treated with compounds for immunoblot to validate the newly developed animal model, determine the antidiabetic potential of natural product leads, evaluate glucose metabolism, and discover possible mechanisms of action.
(§2) At 72 hpf, naturally dechorionated zebrafish were sorted into a 24-well microplate with 10 fish per well. Type 2 diabetes was induced with the diabetogenic agent alloxan at a dose of 0.5 mg/mL in system water for 3 hours. […] After 3 hours of treatment with natural product samples, 10 mg/mL D-glucose was administered in system water for 30 minutes, followed by 1 hour in fresh system water to metabolize the glucose and natural product leads. Upon completion of the 4-phase treatment cycle, zebrafish treatment groups were snap frozen into individual microcentrifuge tubes on dry ice, stored overnight at −80° C., thawed, homogenized with 2 μL PBS per animal, and centrifuged at 4° C. for 1 hour at 17,000 rpm. Protein content of homogenate supernatant was determined using the Pierce BCA Protein Assay kit (Pierce Biotechnology) and bovine serum albumin (BSA) standard curve. Absorbance of protein solutions from zebrafish homogenates and serial dilutions of the BSA standard were measured at 544 nm, using a FLUOstar Optima plate reader (BMG Labtechnologies GmbH, Inc.). Homogenates were analyzed by Western blot. Equal amounts of protein (20 μg) were combined with 4× lithium dodecyl sulphate (LDS) loading buffer (NuPAGE, Life Technologies, Carlsbad, CA, USA), brought to volume (15 μL) with PBS, and heated to 95° C. for 5 minutes. Proteins were resolved using NuPAGE Bis-Tris 4-12% gradient sodium dodecyl sulfate polyacrylamide gel electrophoresis (SDS-PAGE) gels together with SeeBlue Plus2 Pre-Stained Standard Ladder (Life Technologies).
(§3) Electrophoresis was performed using NuPAGE MES SDS Running Buffer and XCell SureLock Mini-Cell Electrophoresis System (Life Technologies). Separated proteins were transferred from the gel to a polyvinylidene fluoride (PVDF) membrane using tris buffered saline with Tween-20 (TBST) buffer. The blots were blocked in 3% BSA in TBST and subsequently probed using primary antibodies (1:1000 in 1% BSA in TBST) against each target overnight (Table 1). The secondary, horseradish peroxidase (HRP) conjugated antibodies (1:2000) were obtained from Santa Cruz Biotechnology Inc., (Santa Cruz, CA, USA). Conjugated antibodies were detected using SuperSignal West Femto chemiluminescent substrate from Pierce Biotechnology. Western blots were visualized, and images captured using a luminometer and LumiAnalyst 3.0 software (Boehringer-Mannheim, Mannheim, Germany). Band density was quantified for proteins of interest using ImageJ Gel Analysis.
(§4) In the case of duplicate blots, the band density results were expressed in bar graphs as the mean±standard error of the mean (SEM) of two independent experiments. Due to the labor- and time-intensive aspect of Western blot analysis with multiple target proteins, a maximum of two independent immunoblot experiments were performed per compared sample set. […] Additionally, treatment groups were also evaluated versus the diabetic, untreated control group for significance by Student's f-test and indicated in the bar graphs with p values represented by *p<0.05, **p<0.01, and ***p<0.001. […]

[3] = tested on: PEPCK; experiment: Diabetic zebrafish Western blot, PEPCK expression; format: in vivo; conditions: 10 μM, library screen, FIG. 4 / FIG. 11
Description: as §1
(§5) At 72 hpf, naturally dechorionated zebrafish were sorted into a 24-well microplate with 10 fish per well. Type 2 diabetes was induced with the diabetogenic agent alloxan at a dose of 0.5 mg/mL in system water for 3 hours. The incubation solution was changed to 0.01% DMSO in system water with compounds at concentrations of 20 μg/mL or […], respectively. After 3 hours of treatment with natural product samples, 10 mg/mL D-glucose was administered in system water for 30 minutes, followed by 1 hour in fresh system water to metabolize the glucose and natural product leads. Upon completion of the 4-phase treatment cycle, zebrafish treatment groups were snap frozen into individual microcentrifuge tubes on dry ice, stored overnight at −80° C., thawed, homogenized with 2 μL PBS per animal, and centrifuged at 4° C. for 1 hour at 17,000 rpm. Protein content of homogenate supernatant was determined using the Pierce BCA Protein Assay kit (Pierce Biotechnology) and bovine serum albumin (BSA) standard curve. Absorbance of protein solutions from zebrafish homogenates and serial dilutions of the BSA standard were measured at 544 nm, using a FLUOstar Optima plate reader (BMG Labtechnologies GmbH, Inc.). Homogenates were analyzed by Western blot. Equal amounts of protein (20 μg) were combined with 4× lithium dodecyl sulphate (LDS) loading buffer (NuPAGE, Life Technologies, Carlsbad, CA, USA), brought to volume (15 μL) with PBS, and heated to 95° C. for 5 minutes. Proteins were resolved using NuPAGE Bis-Tris 4-12% gradient sodium dodecyl sulfate polyacrylamide gel electrophoresis (SDS-PAGE) gels together with SeeBlue Plus2 Pre-Stained Standard Ladder (Life Technologies).
as §3, with “Western blots were visualized, and images captured using a luminometer and LumiAnalyst 3.0 software (Boehringer-Mannheim, Mannheim, Germany).” left out, “Analysis. […]” for “Analysis.”

[4] = tested on: NFκB p65; experiment: Diabetic zebrafish Western blot, NFκB expression; format: in vivo; conditions: diabetic zebrafish, 10 μM, FIG. 5
Description: as §1, §2, §3, §4

[5] = tested on: GLUT-4; experiment: Diabetic zebrafish Western blot, GLUT-4 expression; format: in vivo; conditions: 10 μM, FIG. 5
Description: as §1
as §5, with “Proteins were resolved using NuPAGE Bis-Tris 4-12% gradient sodium dodecyl sulfate polyacrylamide gel electrophoresis (SDS-PAGE) gels together with SeeBlue Plus2 Pre-Stained Standard Ladder (Life Technologies).” left out
Electrophoresis was performed using NuPAGE MES SDS Running Buffer and XCell SureLock Mini-Cell Electrophoresis System (Life Technologies). […] Conjugated antibodies were detected using SuperSignal West Femto chemiluminescent substrate from Pierce Biotechnology. […] Band density was quantified for proteins of interest using ImageJ Gel Analysis. […]

SMILES: Oc1cccc(CCc2ccc3c(c2)OCO3)c1 [Compound 16]
- activation at 50 µg/mL [1]: 0%

SMILES: COc1ccc(-c2cc(=O)c3c(O)cc(O)cc3o2)cc1 [Compound 17]
- activation at 50 µg/mL [1]: 0%

SMILES: COc1cc(O)c2c(c1)OC(c1ccc(O)cc1)CC2=O (stereo not drawn) [Compound 19]
- activation at 50 µg/mL [1]: 77%
- HbA1C expression (Western blot band density) [2]: lowest glycated hemoglobin levels

SMILES: O=c1cc(-c2ccc(O)cc2)oc2c([C@H]3OC(CO)[C@@H](O)[C@H](O)C3O)c(O)cc(O)c12 (stereo partly drawn) [Compound 21]
- activation at 50 µg/mL [1]: 57%
- HbA1C expression (Western blot band density) [2]: lowest glycated hemoglobin levels

- activation at 50 µg/mL [1]: 21%
- % Activation PPAR-γ [1]: 21%
SMILES: COc1cc(O[C@@H]2OC(CO)[C@H](O)[C@H](O)C2O)c2c(-c3ccc(O)c(O)c3)cc(=O)oc2c1 (stereo partly drawn) [Compound 22]
- PEPCK expression (Western blot band density) [3]: 31>rosiglitazone>22>23 and greatest PEPCK expression
- NFκB expression (Western blot) [4]: excellent inhibition of NFκB expression
- GLUT-4 expression (Western blot) [5]: strong GLUT-4 expression

- activation at 50 µg/mL [1]: 145%
- % Activation PPAR-γ [1]: 145%
- PPAR-γ activity in the in vitro assay (in words) ([1]; versus positive control rosiglitazone): top performers
SMILES: COc1cc(O[C@@H]2OC(CO)[C@@H](O)[C@H](O)C2O)c2c(-c3ccc(O)c(O)c3)cc(=O)oc2c1 (stereo partly drawn) [Compound 23]
- PEPCK expression (Western blot band density) [3]: 31>rosiglitazone>22>23
- NFκB expression (Western blot) [4]: excellent inhibition of NFκB expression
- GLUT-4 expression (Western blot) [5]: strong GLUT-4 expression

SMILES: CC(C)(O)CCC(=O)[C@](C)(O)[C@H]1[C@H](O)C[C@@]2(C)C3CC=C4[C@@H](CC(O)[C@H](O[C@@H]5OC(CO)[C@@H](O)[C@H](O)C5O)C4(C)C)C3C(=O)C[C@@]12C (stereo partly drawn) [Compound 27]
- activation at 50 µg/mL [1]: 65%

SMILES: C[C@]12C[C@@H](O)CC3(CCC4[C@@](C)(CCC[C@@]4(C)C(=O)O[C@@H]4OC(CO)[C@@H](O[C@@H]5OC[C@H](O)[C@H](O)C5O)[C@H](O)C4O)C3C(=O)O1)C2 (stereo partly drawn) [Compound 28]
- activation at 50 µg/mL [1]: 0%

SMILES: C=C1CC[C@H]2C(=C)CC[C@H]3C(=C)C(=O)O[C@@H]3[C@@H]12 [Compound 29]
- activation at 50 µg/mL [1]: 0%

SMILES: C/C=C/C1=CC=C/C(=C2/C(=O)CCNC2=O)O1 [Compound 30]
- activation at 50 µg/mL [1]: 37%
